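How tested: cells in 96-well plates exposed to compound for 48 hours at five concentrations. GI50 is the concentration that inhibits growth by half.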 Active and inactive are the calls of the source. Cut-off read from the data, not from the text of the source: active = GI50 up to about 1.1 µM and inactive = higher.
How the values were obtained:
Experiment in all cases: NCI-60 cell line screen, 48 h
M14 = system: M14
SF-539 = system: SF-539
EKVX = system: EKVX
HOP-62 = system: HOP-62
MDA-MB-435 = system: MDA-MB-435
HCT-116 = system: HCT-116
RXF 393 = system: RXF 393
SF-295 = system: SF-295
CAKI-1 = system: CAKI-1
OVCAR-5 = system: OVCAR-5
NCI-H522 = system: NCI-H522
SNB-19 = system: SNB-19
DU-145 = system: DU-145
OVCAR-3 = system: OVCAR-3
ACHN = system: ACHN
BT-549 = system: BT-549
OVCAR-4 = system: OVCAR-4
PC-3 = system: PC-3
OVCAR-8 = system: OVCAR-8
SNB-75 = system: SNB-75

Measured: GI50

CSC1=NC(C(N)=O)C(N)N1C (stereo not given)
inactive: M14 > 100 µM | SF-539 > 100 µM | EKVX > 100 µM | HOP-62 > 100 µM | MDA-MB-435 > 100 µM | HCT-116 > 100 µM | RXF 393 > 100 µM | SF-295 > 100 µM | CAKI-1 > 100 µM | OVCAR-5 > 100 µM | NCI-H522 > 100 µM | SNB-19 > 100 µM | DU-145 > 100 µM | OVCAR-3 > 100 µM | ACHN > 100 µM | BT-549 > 100 µM | OVCAR-4 > 100 µM | PC-3 > 100 µM | OVCAR-8 > 100 µM

CCOC(=O)CNc1c(OCc2ccccc2)c(=O)c1=O
inactive: M14 > 100 µM | EKVX > 100 µM | HOP-62 > 100 µM | MDA-MB-435 > 100 µM | HCT-116 > 100 µM | RXF 393 > 100 µM | SF-295 > 100 µM | OVCAR-5 > 100 µM | NCI-H522 > 100 µM | SNB-19 > 100 µM | DU-145 > 100 µM | OVCAR-3 > 100 µM | ACHN > 100 µM | BT-549 > 100 µM | OVCAR-4 > 100 µM | PC-3 > 100 µM | OVCAR-8 > 100 µM | SNB-75 > 100 µM

Cc1cc(C)c(N[S+]([O-])c2ccc(Cl)cc2)c(C)c1 (stereo not given)
inactive: M14 > 100 µM | SF-539 > 100 µM | EKVX > 100 µM | HOP-62 > 100 µM | MDA-MB-435 51.5 µM | HCT-116 > 100 µM | RXF 393 > 100 µM | SF-295 > 100 µM | OVCAR-5 > 100 µM | SNB-19 > 100 µM | DU-145 > 100 µM | OVCAR-3 > 100 µM | ACHN > 100 µM | BT-549 > 100 µM | PC-3 > 100 µM | OVCAR-8 > 100 µM

CCOP(=O)(CN1CCNCCNCC1)OCC
inactive: M14 > 100 µM | SF-539 > 100 µM | EKVX > 100 µM | HOP-62 > 100 µM | MDA-MB-435 > 100 µM | HCT-116 > 100 µM | SF-295 > 100 µM | CAKI-1 > 100 µM | OVCAR-5 > 100 µM | NCI-H522 > 100 µM | SNB-19 > 100 µM | DU-145 > 100 µM | OVCAR-3 > 100 µM | ACHN > 100 µM | BT-549 > 100 µM | OVCAR-4 > 100 µM | PC-3 > 100 µM | OVCAR-8 > 100 µM | SNB-75 26.6 µM

c1cc(-c2cscc2-c2ccsc2)cs1
inactive: M14 31.3 µM | SF-539 17.8 µM | EKVX 41.3 µM | HOP-62 26.5 µM | MDA-MB-435 36.4 µM | HCT-116 40.5 µM | RXF 393 28.4 µM | SF-295 83.4 µM | CAKI-1 > 100 µM | OVCAR-5 53.2 µM | DU-145 > 100 µM | OVCAR-3 14.4 µM | ACHN > 100 µM | BT-549 37.8 µM | OVCAR-4 37.8 µM | PC-3 27.5 µM | SNB-75 12.3 µM

Cc1cn(CCOCCOC(=O)NC(CCCNC(=N)N)C(=O)O)c(=O)[nH]c1=O (stereo not given)
inactive: M14 > 100 µM | SF-539 > 100 µM | EKVX > 100 µM | HOP-62 > 100 µM | MDA-MB-435 > 100 µM | HCT-116 > 100 µM | RXF 393 > 100 µM | SF-295 > 100 µM | OVCAR-5 > 100 µM | SNB-19 > 100 µM | DU-145 > 100 µM | OVCAR-3 > 100 µM | ACHN > 100 µM | BT-549 > 100 µM | OVCAR-4 > 100 µM | PC-3 > 100 µM | SNB-75 > 100 µM

CCCC(=O)n1[nH]c(=O)n(C(C)(C)C)c1=O
inactive: M14 > 100 µM | EKVX > 100 µM | HOP-62 > 100 µM | MDA-MB-435 > 100 µM | HCT-116 > 100 µM | RXF 393 > 100 µM | SF-295 > 100 µM | CAKI-1 > 100 µM | OVCAR-5 > 100 µM | SNB-19 > 100 µM | DU-145 > 100 µM | OVCAR-3 > 100 µM | ACHN > 100 µM | BT-549 > 100 µM | OVCAR-4 > 100 µM | PC-3 > 100 µM | OVCAR-8 > 100 µM | SNB-75 39.5 µM

Nc1nc(N)c2ncn(Cc3ccccc3CCl)c2n1
inactive: M14 > 100 µM | SF-539 > 100 µM | EKVX > 100 µM | HOP-62 > 100 µM | MDA-MB-435 > 100 µM | HCT-116 > 100 µM | SF-295 > 100 µM | CAKI-1 > 100 µM | OVCAR-5 > 100 µM | NCI-H522 > 100 µM | SNB-19 > 100 µM | DU-145 > 100 µM | OVCAR-3 > 100 µM | ACHN > 100 µM | BT-549 > 100 µM | OVCAR-4 80.5 µM | PC-3 > 100 µM | OVCAR-8 > 100 µM | SNB-75 > 100 µM

Cc1ccc(O)c(C2=CC(c3cccc(Cl)c3)SC(=N)N2)c1 (stereo not given)
inactive: M14 26 µM | SF-539 23 µM | EKVX 17.1 µM | HOP-62 23 µM | MDA-MB-435 19 µM | HCT-116 19.3 µM | RXF 393 23.1 µM | SF-295 17.8 µM | CAKI-1 28.2 µM | OVCAR-5 26.2 µM | NCI-H522 16.1 µM | SNB-19 16.1 µM | DU-145 46.5 µM | OVCAR-3 29.5 µM | ACHN 24.2 µM | BT-549 31.6 µM | OVCAR-4 1.77 µM | PC-3 16.6 µM | OVCAR-8 37.8 µM

CCCC(CC)c1c(O)c(O)c(C(CC)CCC)c(C(CC)CCC)c1C(CC)CCC (stereo not given)
inactive: M14 > 10 µM | SF-539 > 10 µM | EKVX > 10 µM | HOP-62 > 10 µM | MDA-MB-435 > 10 µM | HCT-116 > 10 µM | RXF 393 > 10 µM | SF-295 > 10 µM | CAKI-1 > 10 µM | OVCAR-5 > 10 µM | NCI-H522 > 10 µM | SNB-19 > 10 µM | DU-145 > 10 µM | OVCAR-3 > 10 µM | ACHN > 10 µM | BT-549 > 10 µM | OVCAR-4 > 10 µM | PC-3 > 10 µM | OVCAR-8 > 10 µM

O=CC1C[C@@H](N2C(=O)O[C@@H](c3ccccc3)[C@H]2c2ccccc2)[C@@H]1COCc1ccccc1 (stereo not given in full)
inactive: M14 19.1 µM | SF-539 18.7 µM | EKVX 20 µM | HOP-62 18 µM | MDA-MB-435 18.2 µM | HCT-116 16.7 µM | RXF 393 18.7 µM | SF-295 17.3 µM | CAKI-1 36.2 µM | OVCAR-5 22.4 µM | NCI-H522 16.4 µM | SNB-19 19.9 µM | DU-145 17.7 µM | OVCAR-3 14.8 µM | ACHN 24.8 µM | BT-549 20.3 µM | OVCAR-4 28.6 µM | PC-3 19.5 µM | OVCAR-8 21.2 µM
